This note sets out measurements from patent publication US20260234144A1 (TAY THERAPEUTICS LIMITED, priority 2023, published 2026).

The test system of the assay is R223X stop codon in the mutated luciferase gene, ADXC8 luciferase reporter cell line. Briefly: cells. It counts as cell-based. To be noted: ADXC8 cells, 24 hours; for Emax / EC (100% of 200 uM G418 response): 24 h; for Emax: read-out: Fold Over Control, maximum fold response relative to 200 μM G418; for EC (100% of 200 uM G418 response): read-out: pC100%, negative logarithm of the concentration giving the same response as 200 μM G418. The protocol: The read-through activity of compounds was assessed using the ADXC8 luciferase reporter cell line (generated as described in McElroy et al. PLoS Biology (2013), 11, e1001593). […] The amount of luciferase is measured by adding a lysis buffer containing luciferin substrate and detecting luminescence using the following protocol:
ADXC8 cells in assay media (DMEM+10% FBS) were seeded into 96-well tissue culture treated white plates (Greiner) to a density of 13,000 cells per well and incubated for 24 hours at 37° C. in an atmosphere of 5% CO2. […] Plates were incubated for a further 24 hours at 37° C. in an atmosphere of 5% CO2. Cells treated with 200 μM G418 (with 1% DMSO) were used as a positive control.
Cell viability and firefly luciferase activity were measured in the same assay wells. CellTiter-Fluor™ reagent was prepared as per manufacturer's instructions (Promega E7120) and 20 μl of 5× CellTiter-Fluor™ reagent was added to all wells, briefly mixed by orbital shaking (300-500 rpm for −30 seconds) and the plates incubated for 30-45 minutes at 37° C. in an atmosphere of 5% C02. Cell viability was measured by monitoring fluorescence on a CLARIOstar® plate reader (BMG Labtech). Cells containing 1% DMSO were used as a positive control and cells with 400 μM Doxorubicin were used as negative control to define 100 and 0% respectively. ONE-Glo™ luciferase assay buffer (Promega E7120) was prepared according to manufacturer's instructions and 100 μl of luciferase reagent was added to each well and the plate incubated at RT for 3 mins before measuring the luminescence on the CLARIOstar® plate reader (BMG Labtech). Cells treated with 200 μM G418 (with 1% DMSO) were used as a positive control and arbitrarily assigned a value of 100%. Cells treated with 1% DMSO were used as the negative control to define 0% response.
Concentration effect curves were analysed using non-linear regression using the CDD Vault from Collaborative Drug Discovery (Burlingame, CA). […] The bottom and top of the curves were constrained to 0 and the maximum measured response respectively. From the fitted curves, the software derived C100% values (the concentration giving the same response as 200 μM G418) for each compound. The negative logarithm of C100% is reported as pC100% (Table 1). In addition to pC100% values, the maximum fold response relative to 200 μM G418 (Fold over Control) was also captured (Table 1). A pC100% categorisation of ‘-’ in Table 1 represents examples in which a pC100% response was not reached when assayed at a concentration of 100 μM. A pC100% categorisation of ‘*’ in Table 1 represents examples in which a pC100% response was not reached when assayed at a concentration of 30 μM.

`CCNc1nc(N[C@H]2CN(C)C[C@@H]2O)nc2nc(C)cc(C)c12` [Example 391]: the Emax fell in the range of 100 to 3000% and the EC (100% of 200 uM G418 response) was 0.1 to 1 µM. Take `CNc1nc(NC2CNCC2C#N)nc2nc(C)cc(C)c12` (single isomer, unassigned) [Example 452]: the “Fold Over Control” value (maximum fold response relative to 200 μM G418) is recorded as “## (Fold over Ctrl > 1 ≤ 30)”. Besides, the pC100% result (negative logarithm of the concentration giving the same response as 200 μM G418) is “+ (pC100% > 4.0 ≤ 5.0)”. In the case of `Cc1cc(C)c2c(N)nc(NC3CCN(Cc4cc[nH]n4)CC3)nc2n1` [Example 469], the Emax was 100 to 3000% and the EC (100% of 200 uM G418 response) was in the range of 10 to 100 µM. Consider `CN1CCC(Nc2nc(N)c3ccc(C4CCCC4)nc3n2)CC1` [Example 310], for which the EC (100% of 200 uM G418 response) was 1 to 10 µM.

For the compound `Cc1cc(C)c2c(N)nc(NC3CCN(Cc4c[nH]cn4)CC3)nc2n1` [Example 491], the Emax lay within 100 to 3000% and the EC (100% of 200 uM G418 response) was 10 to 100 µM. Turning to `CN1CCC(Nc2nc(N)c3c4c(cnc3n2)CCC4)CC1` [Example 274], the EC (100% of 200 uM G418 response) was 1 to 10 µM. Consider `CN1CCC(Nc2nc(N)c3ccc(Oc4ccccc4)nc3n2)CC1` [Example 32, N^2-(1-methylpiperidin-4-yl)-7-phenoxypyrido[2,3-d]pyrimidine-2,4-diamine], for which the Emax was 100 to 3000% and the EC (100% of 200 uM G418 response) is 10 to 100 µM. For `Cc1cc(C)c2c(N)nc(NC3CCN(Cc4c(F)cc(C#N)cc4F)CC3)nc2n1` [Example 551], the Emax was in the range of 100 to 3000% and the EC (100% of 200 uM G418 response) lay within 10 to 100 µM. For `Cc1c2c(nc3nc(NC4CCN(Cc5cc(F)cc(F)c5O)CC4)nc(N)c13)CCC2` [Example 654], in that order: 100 to 3000% and 1 to 10 µM.

Regarding `CC(C)c1cnc2nc(NC3CCN(C)CC3)nc(N)c2c1` [Example 276], the Emax was in the range of 100 to 3000% and the EC (100% of 200 uM G418 response) was in the range of 10 to 100 µM. In the case of `Cc1cc(C)c2c(N)nc(NCC3(N(C)C)CCOCC3)nc2n1` [Example 156], the EC (100% of 200 uM G418 response) is 1 to 10 µM. `Cc1cc(C)c2c(N)nc(NC3CCN(Cc4cccc(F)c4)CC3)nc2n1` [Example 466]: the Emax is 100 to 3000% and the EC (100% of 200 uM G418 response) fell in the range of 1 to 10 µM. For the compound `CN1CCC(Nc2nc(N)c3ccc(-c4cccc(C(=O)N(C)C)c4)nc3n2)CC1` [Example 86], the Emax lay within 0 to 100% and the EC (100% of 200 uM G418 response) is greater than 100 µM.

`CNc1nc(N[C@H]2CN(C3CC3)C[C@@H]2O)nc2nc(C)cc(C)c12` [Example 612]: the Emax was in the range of 100 to 3000% and the EC (100% of 200 uM G418 response) was 10 to 100 µM. For `Cc1cc(C)c2c(NC3CC3)nc(NC3CCN(C)CC3)nc2n1` [Example 320] the same measures were 100 to 3000% and 1 to 10 µM. On to `CNc1nc(N[C@H]2CNC[C@H]2O)nc2nc3c(c(C)c12)CCC3` [Example 360], for which the Emax fell in the range of 100 to 3000% and the EC (100% of 200 uM G418 response) was 10 to 100 µM.

For `Cc1cc(C)c2c(N)nc(NCC3CCN(C)C3)nc2n1` (stereo not shown) [Example 170], the Emax lay within 100 to 3000% and the EC (100% of 200 uM G418 response) lay in the range of 10 to 100 µM. With `CN1CCC(Nc2nc(N)c3ccc(-c4ccccc4CO)nc3n2)CC1` [Example 89], the EC (100% of 200 uM G418 response) fell in the range of 10 to 100 µM. Consider `CNc1cc(N[C@H]2CNC[C@H]2O)nc2nc3c(c(C)c12)CCC3` [Example 618], for which the EC (100% of 200 uM G418 response) was 1 to 10 µM. As for `Cc1cc(C)c2c(N)nc(NC3CCN(Cc4ccc(C#N)c(F)c4)CC3)nc2n1` [Example 570], the Emax was 100 to 3000% and the EC (100% of 200 uM G418 response) fell in the range of 0.1 to 1 µM. For `CNc1nc(N[C@H]2CN(C3CCC3)C[C@H]2F)nc2nc(C)cc(C)c12` [Example 627], in that order: 100 to 3000% and 10 to 100 µM. With `Cc1cc(C)c2c(N)nc(NC3CCNCC3)nc2n1` [Example 279], the Emax is 100 to 3000% and the EC (100% of 200 uM G418 response) fell in the range of 1 to 10 µM. In the case of `Cc1cc(C)c2c(N)nc(N[C@H]3CN[C@H](C)C3)nc2n1` [Example 209], the Emax lay in the range of 100 to 3000% and the EC (100% of 200 uM G418 response) lay in the range of 1 to 10 µM. For `Cc1cc(C)c2c(N)nc(NC3CCN(Cc4ccccn4)CC3)nc2n1` [Example 471], the Emax was in the range of 100 to 3000% and the EC (100% of 200 uM G418 response) was 1 to 10 µM. Consider `COCc1ccc2c(N)nc(NC3CCN(C)CC3)nc2n1` [Example 237, 7-(methoxymethyl)-N^2-(1-methylpiperidin-4-yl)pyrido[2,3-d]pyrimidine-2,4-diamine], for which the Emax fell in the range of 100 to 3000% and the EC (100% of 200 uM G418 response) was in the range of 10 to 100 µM. For `COc1cccc(-c2ccc3c(N)nc(NC4CCN(C)CC4)nc3n2)c1` [Example 100] the same measures were 100 to 3000% and 1 to 10 µM. Consider `CN1CCC(Nc2nc(N)c3ccc(-c4ccc(C#N)cc4)nc3n2)CC1` [Example 95], for which the EC (100% of 200 uM G418 response) is 10 to 100 µM. In the case of `CN1CCC(Nc2nc(N)c3ccc(C#N)nc3n2)CC1` [Example 282], the Emax fell in the range of 0 to 100% and the EC (100% of 200 uM G418 response) was greater than 31.6 µM.

On to `CCNc1nc(N[C@H]2CN(C)C[C@H]2F)nc2nc(C)cc(C)c12` [Example 395], for which the EC (100% of 200 uM G418 response) lay in the range of 1 to 10 µM. As to `CNc1nc(NC2C3CCC2CN(C)C3)nc2nc(C)cc(C)c12` (single isomer, unassigned) [Example 433], the Emax was 100 to 3000% and the EC (100% of 200 uM G418 response) lay within 1 to 10 µM. Consider `Cc1cc(C)c2c(N)nc(NCCCN3CCC3)nc2n1` [Example 191], for which the Emax lay in the range of 100 to 3000% and the EC (100% of 200 uM G418 response) lay in the range of 10 to 100 µM.

Consider `CN1CCC(Nc2nc(N)c3ccc(-c4cccnc4)nc3n2)CC1` [Example 25, N^2-(1-methylpiperidin-4-yl)-7-(pyridin-3-yl)pyrido[2,3-d]pyrimidine-2,4-diamine], for which the Emax lay in the range of 100 to 3000% and the EC (100% of 200 uM G418 response) was 10 to 100 µM. In the case of `Cc1cc(C)c2c(N)nc(NCC3CN(C)CCO3)nc2n1` (stereo not shown) [Example 152], the Emax fell in the range of 100 to 3000% and the EC (100% of 200 uM G418 response) fell in the range of 10 to 100 µM. For the compound `CN(C)Cc1ccccc1-c1ccc2c(N)nc(NC3CCN(C)CC3)nc2n1` [Example 59], the Emax lay in the range of 0 to 100% and the EC (100% of 200 uM G418 response) is greater than 100 µM.

Consider `Cc1cc(C)c2c(N)nc(NC3CCN(CC4CCC4)CC3)nc2n1` [Example 454], for which the Emax is 100 to 3000% and the EC (100% of 200 uM G418 response) fell in the range of 1 to 10 µM. For `Cc1cc(C)c2c(N)nc(NC3CCN(Cc4ccc(C#N)cc4Br)CC3)nc2n1` [Example 561] the same measures were 100 to 3000% and 1 to 10 µM. For `CNc1nc(N[C@H]2CN(C3CCC3)C[C@@H]2O)nc2nc(C)cc(C)c12` [Example 624] the same measures were 100 to 3000% and 1 to 10 µM. With `Cc1cc(C)c2c(N)nc(N[C@H]3CCN(C)C3)nc2n1` [Example 15, (S)-5,7-dimethyl-N^2-(1-methylpyrrolidin-3-yl)pyrido[2,3-d]pyrimidine-2,4-diamine], the Emax is 100 to 3000% and the EC (100% of 200 uM G418 response) lay in the range of 1 to 10 µM. With `Cc1cc(C)c2c(N)nc(NCCN3CCOCC3)nc2n1` [Example 173], the Emax lay within 0 to 100% and the EC (100% of 200 uM G418 response) is greater than 31.6 µM.

In the case of `CNc1nc(N[C@H]2CN[C@H](C(F)F)C2)nc2nc(C)cc(C)c12` [Example 407], the EC (100% of 200 uM G418 response) fell in the range of 1 to 10 µM. Consider `Cc1cc(C)c2c(N)nc(N[C@@H]3CNC[C@H]3O)nc2n1` [Example 302], for which the Emax was 100 to 3000% and the EC (100% of 200 uM G418 response) lay within 1 to 10 µM. For `Cc1cc(C)c2c(N)nc(NC3CCN(Cc4ccc(O)cc4)CC3)nc2n1` [Example 460], in that order: 100 to 3000% and 1 to 10 µM. For `Cc1cc(C)c2c(NCCN(C)C)nc(NC3CCN(C)CC3)nc2n1` [Example 270], in that order: 100 to 3000% and 1 to 10 µM. In the case of `Cc1cc(C)c2c(N)nc(N[C@@H]3CCN(Cc4ccc(C#N)cc4)C[C@@H]3O)nc2n1` [Example 562], the Emax lay in the range of 100 to 3000% and the EC (100% of 200 uM G418 response) was in the range of 1 to 10 µM. As for `Cc1cc(C)c2c(N)nc(NC[C@H]3CNCCO3)nc2n1` [Example 161], the Emax is 100 to 3000% and the EC (100% of 200 uM G418 response) is 10 to 100 µM.
